In patent US8471061B2 (priority 2004, dated 2013):
Where “and” joins values, the source holds several entries; their conditions need not be identical. Identical values can stand only once. Like-named read-outs stand apart in the source and are kept apart here.

Columns and labels:
[1] = test system: apple variety “Fuji”; assay: Coloring test of apple; type: in vivo
Protocol: The 5-aminolevulinic acid phosphate obtained in Example 1 was dissolved in ion exchange water to the predetermined concentration shown in the following table. A spreader (“Approach BI” manufactured by Maruwa Biochemical) was added to the liquid to a concentration of 0.1% by weight. The pH was adjusted using phosphoric acid.
An aqueous 5-aminolevulinic acid hydrochloride solution was prepared in the same manner, except that the above-described 5-aminolevulinic acid phosphate was changed to 5-aminolevulinic acid hydrochloride and the phosphoric acid for pH adjustment was changed to hydrochloric acid.
The thus prepared liquid was sprayed at a ratio of 2 liters per branch on three main branches where young fruits of an apple variety “Fuji” bored but not yet colored into red (September 15). About 2 months thereafter (November 6), the apples were harvested and their coloring degree was examined. A color meter CR-200 manufactured by MINOLTA CAMERA was used for the measurement of color.
The 5-aminolevulinic acid nitrate obtained in Example 16 was dissolved in ion exchange water to the predetermined concentration shown in Table 16. A spreader (“Approach BI” manufactured by Maruwa Biochemical) was added to the liquid to a concentration of 0.1% by weight. The pH was adjusted using nitric acid.
A solution was prepared in the same manner, except that the above-described 5-aminolevulinic acid nitrate was changed to 5-aminolevulinic acid hydrochloride and the nitric acid was changed to hydrochloric acid.
The 5-aminolevulinic acid p-toluenesulfonate obtained in Example 23 was dissolved in ion exchange water to the predetermined concentration shown in Table 24. A spreader (“Approach B1” manufactured by Maruwa Biochemical) was added to the liquid to a concentration of 0.1% by weight. The pH was adjusted using p-toluenesulfonic acid.
A solution was prepared in the same manner, except that the above-described 5-aminolevulinic acid p-toluenesulfonate was changed to 5-aminolevulinic acid hydrochloride and the p-toluenesulfonic acid was changed to hydrochloric acid.

[2] = test system: Salmonella typhimurium TA 1535; conditions: TA1535
Protocol: (§1) A test was carried out in accordance with the “Standard of Mutagenicity Tests Using Microorganisms” (Ministry of Labor Notification No. 77, 1988) (partial revision by Ministry of Labor Notification No. 67, 1997) and “Regarding the Tests Concerning Novel Chemical Substances and the like” (dated Nov. 21, 2003: Yaku-Shoku-Hatsu No. 1121002, 2003.11.13 Sei-Kyoku, No. 2, Kan-Ho-Ki-Hatsu No. 031121002). To 0.1 ml of a solution prepared by dissolving 5% (w/v) of 5-aminolevulinic acid phosphate in distilled water (Wako Pure Chemical Industries), 0.5 ml of 0.1 M sodium-phosphate buffer (pH 7.4) (0.5 ml S9 mix in the case of metabolism activation test) was added, and 0.1 ml of each test strain suspension (5 strains of histidine-less Salmonella typhimurium TA 100, TA 98, TA 1535 and TA 1537 and tryptophan-less Escherichia coli WP2 uvrA were used (Japan Bioassay Research Center)) was further added thereto, followed by pre-incubation at 37° C. for 20 minutes while shaking. After completion of the culturing, 2.0 ml of top agar kept at 45° C. in advance was added thereto and layered on a minimum glucose agar plate medium. In this case, 2 plates were arranged for each dosage. However, 3 plates were arranged for a solvent control (negative control). […] In the measurement, an inner area of about 80 mm in diameter of a plate of 86 mm in diameter (84 mm in inner diameter) was measured using an automatic colony analyzer (CA-11: manufactured by System Science), and calculated by carrying out area correction and counting loss correction using a personal computer. However, since reliability of the automatic colony analyzer is reduced when the number of colonies is 1,500 or more, 5 points in the plate were manually measured under the stereoscopic microscope to carry out area correction of the average value. A dosage setting test was carried out on 7 dosages diluted at a common ratio of 4, using a dosage of 5,000 μg/plate as the maximum which is the maximum dosage defined by the guideline.

[3] = test system: Salmonella typhimurium TA 1537; conditions: TA1537
Protocol: as §1

[4] = Chloride ion concentration of aqueous solutions by ion chromatography; type: physicochemical; conditions: detection limit 0.1 ppm; each sample
Protocol: When chloride ion concentration in the aqueous 5-aminolevulinic acid phosphate solutions used in the above-described examples was measured by ion chromatography under the following conditions, it was equal to or lower than the detection limit (0.1 ppm) in each sample.
The measuring conditions are as follows; A: separation column (IonPac AS12A manufactured by Japan Dionex), B: guard column (IonPac AG12A manufactured by Japan Dionex), C: eluting solution (an aqueous solution containing Na2CO3: 3.0 mmol/l and NaHCO3: 0.5 mmol/l), D: flow rate (1.5 ml/min), E: suppressor (ASRS (recycle mode, current value 50 mA)), F: amount of introduced sample (25 μl), G: temperature of constant temperature oven (35° C.) and H: detector (electric conductivity detector).
When chloride ion concentration in the aqueous 5-aminolevulinic acid nitrate solutions used in the above-described examples was measured by ion chromatography under the following conditions, it was equal to or lower than the detection limit (0.1 ppm) in each sample.
The measuring conditions are as follows: A: separation column (IonPac AS12A manufactured by Japan Dionex), B: guard column (IonPac AG12A manufactured by Japan Dionex), C: eluting solution (an aqueous solution consisting of Na2CO3: 3.0 mmol/l and NaHCO3: 0.5 mmol/l), D: flow rate (1.5 ml/min), E: suppressor (ASRS (recycle mode, current value 50 mA)), F: amount of introduced sample (25 μl), G: temperature of constant temperature oven (35° C.) and H: detector (electric conductivity detector).
When chloride ion concentration in the aqueous 5-aminolevulinic acid p-toluenesulfonate solutions used in the above-described examples was measured by ion chromatography under the following conditions, it was equal to or lower than the detection limit (0.1 ppm) in each sample.

[5] = S9 Mix(−), 1250 μg/plate, Phosphate

Cl.NCC(=O)CCC(=O)O [5-aminolevulinic acid hydrochloride, reference compound]
Coloring, L ([1]; 100 ppm (pH 5.0)): 42.28 | Coloring, a ([1]; 100 ppm (pH 5.0)): 25.96 | Coloring, b ([1]; 100 ppm (pH 5.0)): 14.72 | Coloring, L ([1]; 200 ppm (pH 4.8)): 42.34 | Coloring, a ([1]; 200 ppm (pH 4.8)): 30.92 | Coloring, b ([1]; 200 ppm (pH 4.8)): 14.41

NCC(=O)CCC(=O)O.O=P(O)(O)O [5-aminolevulinic acid phosphate, 5-aminolevulinic Acid Phosphate]
number of back mutation, mean (in parentheses) ([2]; S9 Mix(+), 313 μg/plate): (11) colonies/plate | number of back mutation, single plates ([2]; S9 Mix(+), 313 μg/plate, Phosphate): 11 colonies/plate and 10 colonies/plate | number of back mutation, mean (in parentheses) ([2]; S9 Mix(+), 625 μg/plate): (10) colonies/plate | number of back mutation, mean (in parentheses) ([2]; S9 Mix(+), 1250 μg/plate): (12) colonies/plate | number of back mutation, single plates ([2]; S9 Mix(+), 1250 μg/plate, Phosphate): 10 colonies/plate and 14 colonies/plate | number of back mutation, mean (in parentheses) ([2]; S9 Mix(+), 2500 μg/plate): (8) colonies/plate | number of back mutation, single plates ([2]; S9 Mix(+), 2500 μg/plate): 8 colonies/plate | number of back mutation, mean (in parentheses) ([2]; S9 Mix(+), 5000 μg/plate): (7) colonies/plate | number of back mutation, single plates ([2]; S9 Mix(+), 5000 μg/plate, Phosphate): 6 colonies/plate and 8 colonies/plate | number of back mutation, mean (in parentheses) ([2]; S9 Mix(−), 313 μg/plate): (10) colonies/plate | number of back mutation, single plates ([2]; S9 Mix(−), 313 μg/plate): 10 colonies/plate | number of back mutation, mean (in parentheses) ([2]; S9 Mix(−), 625 μg/plate): (10) colonies/plate | number of back mutation, mean (in parentheses) ([2]; S9 Mix(−), 1250 μg/plate): (10) colonies/plate | number of back mutation, single plates [2, 5]: 8 colonies/plate and 11 colonies/plate | number of back mutation, mean (in parentheses) ([2]; S9 Mix(−), 2500 μg/plate): (6) colonies/plate | number of back mutation, single plates ([2]; S9 Mix(−), 2500 μg/plate, Phosphate): 6 colonies/plate and 5 colonies/plate | number of back mutation, mean (in parentheses) ([2]; S9 Mix(−), 5000 μg/plate): (7) colonies/plate | number of back mutation, mean (in parentheses) ([3]; S9 Mix(+), 313 μg/plate): (5) colonies/plate | number of back mutation, mean (in parentheses) ([3]; S9 Mix(+), 625 μg/plate): (6) colonies/plate | number of back mutation, mean (in parentheses) ([3]; S9 Mix(+), 1250 μg/plate): (6) colonies/plate | number of back mutation, single plates ([3]; S9 Mix(+), 1250 μg/plate): 6 colonies/plate | number of back mutation, mean (in parentheses) ([3]; S9 Mix(+), 2500 μg/plate): (4) colonies/plate | number of back mutation, single plates ([3]; S9 Mix(+), 2500 μg/plate, Phosphate): 5 colonies/plate and 3 colonies/plate | number of back mutation, mean (in parentheses) ([3]; S9 Mix(+), 5000 μg/plate): (4) colonies/plate | number of back mutation, mean (in parentheses) ([3]; S9 Mix(−), 313 μg/plate): (2) colonies/plate | number of back mutation, mean (in parentheses) ([3]; S9 Mix(−), 625 μg/plate): (3) colonies/plate | number of back mutation, mean (in parentheses) ([3]; S9 Mix(−), 1250 μg/plate): (3) colonies/plate | number of back mutation, single plates [3, 5]: 4 colonies/plate and 2 colonies/plate | number of back mutation, mean (in parentheses) ([3]; S9 Mix(−), 2500 μg/plate): (2) colonies/plate | number of back mutation, single plates ([3]; S9 Mix(−), 2500 μg/plate): 2 colonies/plate | number of back mutation, mean (in parentheses) ([3]; S9 Mix(−), 5000 μg/plate): (3) colonies/plate | Coloring, L ([1]; 100 ppm (pH 5.0)): 42.37 | Coloring, a ([1]; 100 ppm (pH 5.0)): 27.45 | Coloring, b ([1]; 100 ppm (pH 5.0)): 14.54 | Coloring, L ([1]; 200 ppm (pH 5.4)): 42.43 | Coloring, a ([1]; 200 ppm (pH 5.4)): 31.06 | Coloring, b ([1]; 200 ppm (pH 5.4)): 14.63 | Coloring of red compared with 5-aminolevulinic acid hydrochloride ([1]; in vivo): Coloring of red was denser | chloride ion concentration in the aqueous solutions used in the examples [4]: ≤ 0.1 ppm
